Assay results published in patent US10570213B2, “Methods of treating cancers using PD-1 axis binding antagonists and taxanes” (Genentech, Inc., priority 2013, dated 2020).

Test system: MC38 colorectal tumor
Assay: syngeneic MC38 colorectal tumor model in C57BL/6 mice
Format: in vivo
Settings: FIG. 1 experiment
Protocol: Mice with established subcutaneous MC38 tumors of approximately 100-200 mm^3 were treated with single-dose carboplatin at 80 mg/kg by intraperitoneal (IP) injection plus paclitaxel at 10 mg/kg injected intravenously (IV), and anti-gp120 antibody or anti-PD-L1 (clone 25A1 mIgG2a.DANA) at 10 mg/kg dosed 3 times a week for 3 weeks. N=10 mice/group.
Mice with established subcutaneous MC38 tumors of approximately 100-200 mm^3 were treated with a single dose of either saline or dexamethasone at 4 mg/kg IV and 12 hours later, treated with either control anti-gp120 antibody or anti-PD-L1 (clone 25A1.mIgG2a.DANA) at 10 mg/kg IP 3 times a week for 3 weeks. N=10 mice/group.
Mice with established subcutaneous MC38 tumors of approximately 300 mm^3 were treated with anti-gp120 control antibody or anti-PD-L1 antibody (clone YW243.55.570 mIgG2a.DANA) administered by IP injection at 10 mg/kg 3 times a week for 3 weeks, plus saline or carboplatin at 75 mg/kg IP weekly for 3 weeks plus ABRAXANE® at 15 mg/kg iv weekly for 3 weeks, as indicated. N=8 mice/group.
MC38 colorectal tumor cell lines were maintained at Genentech. 7-10 week old C57BL/6 female mice (Charles River Laboratories; Hollister, Calif.) were inoculated subcutaneously in the right unilateral flank with 0.1 million MC38 cells. […]

For paclitaxel+carboplatin, the “mice with partial response (in words)” value (N=10 mice/group) was “no mice” and the “time to progression (TTP), 5× the initial tumor volume” value (tumors approximately 100-200 mm^3 at start, anti-PD-L1 clone 25A1) was 15.5 days.
